Results: patent publication US20140011757A1, “NOVEL MACROLIDE DERIVATIVE” (MEIJI SEIKA PHARMA CO., LTD., priority 2011, published 2014)
Converted amounts (≈) assume the structure as drawn. “And” between values parts separate entries of the source, which are not always exact repeats. Equal values may be shown once. Read-outs that look alike come from different tables or passages of the source.

Columns and labels:
P. multocida = assay: In vitro antibacterial activity, broth microdilution MIC (CLSI M31-A2); type: cell-based, Pasteurella multocida
Method: (§1) Hereinafter, a description is made of an evaluation method for the compound. The compound was measured for its in vitro antibacterial activity by a broth microdilution method in accordance with a CLSI method (formerly NCCLS method, […]-A2) (Performance Standards for Antimicrobial Disk and Dilution Susceptibility Tests for Bacteria Isolated from Animals; Approved Standard-Second Edition NCCLS […]-A2 Vol. 22 No. 6 2002). A medium used was BBL Mueller Hinton II broth supplemented with lysed horse blood and NAD. A test drug solution at each concentration level obtained by dissolving a test drug in ethanol and then diluting the resultant with the liquid medium described above was dispensed into a 96-well microplate, and a test bacterial strain was inoculated. After having been cultured in the presence of 5% CO2 at 37° C. for 20 to 24 hours, the test bacterial strain was visually observed for the presence or absence of its growth. A minimum drug concentration completely inhibiting the growth of the test bacterial strain was defined as a minimum inhibitory concentration (hereinafter, referred to as MIC). The compound obtained in the present invention was measured for its in vitro antibacterial activity by a broth microdilution method in accordance with a CLSI method (formerly NCCLS method, […]-A2) (Performance Standards for Antimicrobial Disk and Dilution Susceptibility Tests for Bacteria Isolated from Animals; Approved Standard-Second Edition NCCLS […]-A2 Vol. 22 No. 6 2002). A medium composition used in the measurement is shown below. […] The resultant test drug solution was further subjected to two-step dilution with the liquid medium described above to prepare a test drug solution at each concentration level. The thus prepared test drug solution at each concentration level was dispensed into a 96-well microplate at 100 μL/well, and a test bacterial strain was inoculated at about 5×10^4 CFU/well. After having been cultured in the presence of 5% CO2 at 37° C. for 20 to 24 hours, the test bacterial strain was visually observed for the presence or absence of its growth. A minimum drug concentration completely inhibiting the growth of the test bacterial strain was defined as a minimum inhibitory concentration (hereinafter, referred to as MIC). […] Saponin was dissolved with purified water. The solution was sterilized and then added to defibrinated horse blood.

A. pleuropneumoniae = assay: as above; type: cell-based, Actinobacillus pleuropneumoniae
Method: as §1

M. haemolytica = assay: as above; type: cell-based, Mannheimia haemolytica
Method: as §1

H. parasuis = assay: as above; type: cell-based, Haemophilus parasuis
Method: as §1

H. somni = assay: as above; type: cell-based, Histophilus somni
Method: as §1

[1] = system: main pathogens of bacterial respiratory tract infections in livestock animals such as cattle and swine; type: cell-based
[2] = Pasteurella multocida, ATCC43019, P. multocida (bovine) strain ATCC43019, read-out: MIC
[3] = Pasteurella multocida, ATCC43137, P. multocida (swine) strain ATCC43137, read-out: MIC
[4] = Pasteurella multocida, P. multocida (bovine) strain 11272, read-out: MIC
[5] = Pasteurella multocida, P. multocida (bovine) strain 11325-1, read-out: MIC
[6] = Pasteurella multocida, P. multocida (bovine) strain 11787-24, read-out: MIC
[7] = Pasteurella multocida, P. multocida (swine) strain 11587-3, read-out: MIC
[8] = Pasteurella multocida, P. multocida (swine) strain 11745-15, read-out: MIC
[9] = Actinobacillus pleuropneumoniae, A. pleuropneumoniae strain 10895-2, read-out: MIC
[10] = Actinobacillus pleuropneumoniae, A. pleuropneumoniae strain 11684-7, read-out: MIC
[11] = Actinobacillus pleuropneumoniae, A. pleuropneumoniae strain 11796-1, read-out: MIC
[12] = Actinobacillus pleuropneumoniae, A. pleuropneumoniae strain 11804-2, read-out: MIC
[13] = Actinobacillus pleuropneumoniae, ATCC27089, A. pleuropneumoniae strain ATCC27089, read-out: MIC
[14] = Mannheimia haemolytica, M. haemolytica strain 11443, read-out: MIC
[15] = Mannheimia haemolytica, M. haemolytica strain 11467-2, read-out: MIC
[16] = Histophilus somni, H. somni strain 11321, read-out: MIC
[17] = Histophilus somni, H. somni strain 11423-3, read-out: MIC
[18] = Glaesserella parasuis, H. parasuis strain 11510-1, read-out: MIC
[19] = Glaesserella parasuis, H. parasuis strain 11640-1, read-out: MIC

aivlosin
MIC (P. multocida): 256 µg/mL and 128 µg/mL | MIC (A. pleuropneumoniae): 32 µg/mL and 64 µg/mL | MIC (M. haemolytica): 32 µg/mL and 64 µg/mL | MIC (H. parasuis): 16 µg/mL and 32 µg/mL

CO[C@@H]1C(OC2O[C@@H](C)C(O)C(N(C)C)C2O)[C@@H](CC=O)C[C@@H](C)[C@@H](OC(C)=O)/C=C/[C@@H](N(C)CCCc2ccnc3ccccc23)[C@@H](O)C[C@@H](C)OC(=O)C[C@H]1OC(C)=O (stereo partly shown) [Compound of formula (I)]
MIC (P. multocida; [2]): 4 µg/mL | MIC (P. multocida; [3]): 4 µg/mL | MIC (P. multocida; [4]): 4 µg/mL | MIC (P. multocida; [5]): 2 µg/mL | MIC (P. multocida; [6]): 4 µg/mL | MIC (P. multocida; [7]): 4 µg/mL | MIC (P. multocida; [8]): 4 µg/mL | MIC (A. pleuropneumoniae; [9]): 4 µg/mL | MIC (A. pleuropneumoniae; [10]): 32 µg/mL | MIC (A. pleuropneumoniae; [11]): 4 µg/mL | MIC (A. pleuropneumoniae; [12]): 8 µg/mL | MIC (A. pleuropneumoniae; [13]): 4 µg/mL | MIC (M. haemolytica; [14]): 4 µg/mL | MIC (M. haemolytica; [15]): 4 µg/mL | MIC (H. somni; [16]): 0.5 µg/mL | MIC (H. somni; [17]): 1 µg/mL | MIC (H. parasuis; [18]): 0.5 µg/mL | MIC (H. parasuis; [19]): 4 µg/mL | MIC corresponding to an activity enhanced as compared to josamycin [1]: approximately 8 fold | MIC corresponding to an activity enhanced as compared to tulathromycin [1]: ≥ 4 fold | antibacterial activities as compared to the existing drugs [1]: remarkably strong antibacterial activities

CO[C@@H]1[C@@H](O[C@@H]2O[C@H](C)[C@@H](O[C@H]3C[C@@](C)(O)[C@@H](OC(=O)CC(C)C)[C@H](C)O3)[C@H](N(C)C)[C@H]2O)[C@@H](CC=O)C[C@@H](C)[C@@H](O)/C=C/C=C/C[C@@H](C)OC(=O)C[C@H]1OC(C)=O [JM, josamycin]
MIC (P. multocida; [2]): 64 µg/mL (≈ 77.3 µM) | MIC (P. multocida; [3]): 32 µg/mL (≈ 38.6 µM) | MIC (P. multocida; [4]): 16 µg/mL (≈ 19.3 µM) | MIC (P. multocida; [5]): 8 µg/mL (≈ 9.66 µM) | MIC (P. multocida; [6]): 32 µg/mL (≈ 38.6 µM) | MIC (P. multocida; [7]): 32 µg/mL (≈ 38.6 µM) | MIC (P. multocida; [8]): 32 µg/mL (≈ 38.6 µM) | MIC (A. pleuropneumoniae; [9]): 32 µg/mL (≈ 38.6 µM) | MIC (A. pleuropneumoniae; [10]): 64 µg/mL (≈ 77.3 µM) | MIC (A. pleuropneumoniae; [11]): 16 µg/mL (≈ 19.3 µM) | MIC (A. pleuropneumoniae; [12]): 8 µg/mL (≈ 9.66 µM) | MIC (A. pleuropneumoniae; [13]): 16 µg/mL (≈ 19.3 µM) | MIC (M. haemolytica; [14]): 16 µg/mL (≈ 19.3 µM) | MIC (M. haemolytica; [15]): 32 µg/mL (≈ 38.6 µM) | MIC (H. somni; [16]): 2 µg/mL (≈ 2.42 µM) | MIC (H. somni; [17]): 8 µg/mL (≈ 9.66 µM) | MIC (H. parasuis; [18]): 8 µg/mL (≈ 9.66 µM) | MIC (H. parasuis; [19]): 32 µg/mL (≈ 38.6 µM)

CCCNC[C@]1(O)[C@H](C)O[C@@H](O[C@H]2[C@H](C)[C@@H](O[C@@H]3O[C@H](C)C[C@H](N(C)C)[C@H]3O)[C@](C)(O)C[C@@H](C)CN[C@H](C)[C@@H](O)[C@](C)(O)[C@@H](CC)OC(=O)[C@@H]2C)C[C@@]1(C)OC [TLM, tulathromycin]
MIC (P. multocida; P. multocida (bovine) strain 11272): 16 µg/mL (≈ 19.8 µM) | MIC (P. multocida; P. multocida (bovine) strain 11325-1): 4 µg/mL (≈ 4.96 µM) | MIC (P. multocida; P. multocida (bovine) strain 11787-24): 8 µg/mL (≈ 9.92 µM) | MIC (P. multocida; P. multocida (bovine) strain ATCC43019): 16 µg/mL (≈ 19.8 µM) | MIC (P. multocida; P. multocida (swine) strain 11587-3): 16 µg/mL (≈ 19.8 µM) | MIC (P. multocida; P. multocida (swine) strain 11745-15): 8 µg/mL (≈ 9.92 µM) | MIC (P. multocida; P. multocida (swine) strain ATCC43137): 16 µg/mL (≈ 19.8 µM) | MIC (A. pleuropneumoniae; A. pleuropneumoniae strain 10895-2): 16 µg/mL (≈ 19.8 µM) | MIC (A. pleuropneumoniae; A. pleuropneumoniae strain 11684-7): 64 µg/mL (≈ 79.4 µM) | MIC (A. pleuropneumoniae; A. pleuropneumoniae strain 11796-1): 16 µg/mL (≈ 19.8 µM) | MIC (A. pleuropneumoniae; A. pleuropneumoniae strain 11804-2): 16 µg/mL (≈ 19.8 µM) | MIC (A. pleuropneumoniae; A. pleuropneumoniae strain ATCC27089): 32 µg/mL (≈ 39.7 µM) | MIC (M. haemolytica; M. haemolytica strain 11443): 16 µg/mL (≈ 19.8 µM) | MIC (M. haemolytica; M. haemolytica strain 11467-2): 32 µg/mL (≈ 39.7 µM) | MIC (H. somni; H. somni strain 11321): 1 µg/mL (≈ 1.24 µM) | MIC (H. somni; H. somni strain 11423-3): 1 µg/mL (≈ 1.24 µM) | MIC (H. parasuis; H. parasuis strain 11510-1): 4 µg/mL (≈ 4.96 µM) | MIC (H. parasuis; H. parasuis strain 11640-1): 8 µg/mL (≈ 9.92 µM)

CC[C@H]1OC(=O)C[C@@H](O)[C@H](C)[C@@H](O[C@@H]2O[C@H](C)[C@@H](O)[C@H](N(C)C)[C@H]2O)[C@@H](CCN2C[C@H](C)C[C@H](C)C2)C[C@@H](C)C(=O)/C=C/C(C)=C/[C@@H]1CO[C@@H]1O[C@H](C)[C@@H](O)[C@@H](OC)[C@H]1OC [TMS, tilmicosin]
MIC (P. multocida; [2]): 32 µg/mL (≈ 36.8 µM) | MIC (P. multocida; [3]): 16 µg/mL (≈ 18.4 µM) | MIC (P. multocida; [4]): 32 µg/mL (≈ 36.8 µM) | MIC (P. multocida; [5]): 16 µg/mL (≈ 18.4 µM) | MIC (P. multocida; [6]): 16 µg/mL (≈ 18.4 µM) | MIC (P. multocida; [7]): 16 µg/mL (≈ 18.4 µM) | MIC (P. multocida; [8]): 16 µg/mL (≈ 18.4 µM) | MIC (A. pleuropneumoniae; [9]): 16 µg/mL (≈ 18.4 µM) | MIC (A. pleuropneumoniae; [10]): 128 µg/mL (≈ 147 µM) | MIC (A. pleuropneumoniae; [11]): 16 µg/mL (≈ 18.4 µM) | MIC (A. pleuropneumoniae; [12]): 16 µg/mL (≈ 18.4 µM) | MIC (A. pleuropneumoniae; [13]): 16 µg/mL (≈ 18.4 µM) | MIC (M. haemolytica; [14]): 16 µg/mL (≈ 18.4 µM) | MIC (M. haemolytica; [15]): 8 µg/mL (≈ 9.2 µM) | MIC (H. somni; [16]): 1 µg/mL (≈ 1.15 µM) | MIC (H. somni; [17]): 4 µg/mL (≈ 4.6 µM) | MIC (H. parasuis; [18]): 1 µg/mL (≈ 1.15 µM) | MIC (H. parasuis; [19]): 16 µg/mL (≈ 18.4 µM)

CC[C@H]1OC(=O)C[C@@H](O)[C@H](C)[C@@H](O[C@@H]2O[C@H](C)[C@@H](O[C@H]3C[C@@](C)(O)[C@@H](O)[C@H](C)O3)[C@H](N(C)C)[C@H]2O)[C@@H](CC=O)C[C@@H](C)C(=O)/C=C/C(C)=C/[C@@H]1CO[C@@H]1O[C@H](C)[C@@H](O)[C@@H](OC)[C@H]1OC [TS, tylosin]
MIC (P. multocida; [2]): 64 µg/mL (≈ 69.9 µM) | MIC (P. multocida; [3]): 64 µg/mL (≈ 69.9 µM) | MIC (P. multocida; [4]): 64 µg/mL (≈ 69.9 µM) | MIC (P. multocida; [5]): 16 µg/mL (≈ 17.5 µM) | MIC (P. multocida; [6]): 32 µg/mL (≈ 34.9 µM) | MIC (P. multocida; [7]): 64 µg/mL (≈ 69.9 µM) | MIC (P. multocida; [8]): 64 µg/mL (≈ 69.9 µM) | MIC (A. pleuropneumoniae; [9]): 16 µg/mL (≈ 17.5 µM) | MIC (A. pleuropneumoniae; [10]): 256 µg/mL (≈ 279 µM) | MIC (A. pleuropneumoniae; [11]): 32 µg/mL (≈ 34.9 µM) | MIC (A. pleuropneumoniae; [12]): 32 µg/mL (≈ 34.9 µM) | MIC (A. pleuropneumoniae; [13]): 32 µg/mL (≈ 34.9 µM) | MIC (M. haemolytica; [14]): 16 µg/mL (≈ 17.5 µM) | MIC (M. haemolytica; [15]): 128 µg/mL (≈ 140 µM) | MIC (H. somni; [16]): 1 µg/mL (≈ 1.09 µM) | MIC (H. somni; [17]): 4 µg/mL (≈ 4.37 µM) | MIC (H. parasuis; [18]): 4 µg/mL (≈ 4.37 µM) | MIC (H. parasuis; [19]): 8 µg/mL (≈ 8.73 µM)
